From paper PMC11161644, “An effective and rapidly degradable disinfectant from disinfection byproducts” (Nature Communications, 2024)
Several values for one entry are separate records, joined by “and”; a condition that tells them apart may be missing. Equal entries are not always repeated. Where two headings read alike, the source gives them in different places.

Columns and labels:
[1] = tested on: P. dumerilii embryos; assay: Developmental toxicity assay with P. dumerilii embryos, dilution factor of in-use concentration (EC50,DF), also after degradation in darkness; assay type: in vivo, Platynereis dumerilii
Excerpt: The DBP doses for 3-log E. coli reduction (pH 7.2) were set as the in-use concentrations, which were serially diluted and added to the P. dumerilii embryos at 12-h postfertilization. A dilution factor was defined as the ratio of the in-use concentration to the exposure concentration. Each exposure set contained a control sample (i.e., the embryos at 12-h postfertilization developed in seawater without the addition of DBPs). By 24-h postfertilization, normally developed embryos should have reached the first larval stage. An inverted stereomicroscope (×40 magnification) was used to observe the larvae. The normal development percentage was calculated as the ratio of normally developed embryos to total embryos. By plotting the curve of the normal development percentage versus the dilution factor, the EC50,DF value (i.e., the dilution factor corresponding to 50% of the normal development percentage of the control sample) was obtained using SigmaPlot 12. The developmental toxicity test was conducted in duplicate.

[2] = Degradation in seawater in darkness (pH 6.2, 7.2, 8.2); details: for Ln (C/C0): seawater pH 8.2, darkness
Method: To study the DBP degradation in seawater in darkness, a DBP was added at 10 mg L^−1 to 50 mL pretreated seawater (pH 8.2) in the quartz flasks. The flasks were wrapped with aluminum foil to simulate the dark condition. The samples were kept at 20 °C in darkness for 0‒120 h, during which the sample was adjusted to pH 6.2 and 7.2 or maintained at pH 8.2 by adding 4 mM phosphate buffer (pH 6.2, 7.2, and 8.2, respectively).
(§1) For the DBP samples with and without sunlight, aliquots were taken at a specific reaction time. The sample aliquots were analyzed using Agilent high-performance liquid chromatography (HPLC) equipped with a Poroshell 120 EC-C18 column (4.6 × 150 mm, 4 µm particle size, Agilent) and a UV detector. The mobile phase, consisting of water (pre-adjusted to pH 2 with phosphoric acid) and acetonitrile at 50/50 (v/v), was applied at a flow rate of 1.0 mL min^−1. PCMX, 2,4-dihalophenols and 5-halosalicylic acids were detected at the wavelength of 230 nm. 2,5-Dihalohydroquinones and 2,6-DCQ were detected at the wavelength of 280 nm. All the degradation experiments were conducted in duplicate.

[3] = Degradation in seawater with simulated solar irradiation; details: for half-life at 10 mg L−1: pH 8.2; for Ln (C/C0): seawater pH 8.2, solar irradiation
Method: The solar photolysis experiments were conducted in a chamber equipped with eight simulated sunlight full-spectrum lamps (BlueMax 5900, Full Spectrum Solutions). The temperature in the chamber was maintained at 20 °C. The total intensity of simulated sunlight was determined using a digital photometer (DT-1010B, Shenzhen Golden Octopus, China). Quartz flasks were positioned in the chamber where the total intensity of simulated sunlight was 4.79 ± 0.04 mW cm^−2 for each quartz flask. […] A DBP was added at 10 mg L^−1 to 50 mL pretreated seawater (pH 8.2) in the quartz flasks and exposed to the simulated solar irradiation for 0‒96 h. Every 8 h, the quartz flasks were rotated in and out of the chamber, and the sample volume was determined and adjusted with ultrapure water to account for any water evaporation. During the solar irradiation experiments, the sample was adjusted to pH 6.2 and 7.2 or maintained at pH 8.2 by adding 4 mM phosphate buffer (pH 6.2, 7.2, and 8.2, respectively).
as §1

[4] = tested on: E. coli (ATCC 25922); assay: Inactivation of E. coli by disinfectants (membrane filter enumeration, contact time 5 min); assay type: cell-based, Escherichia coli; details: for log reduction at 1500 µg/mL / EC (3-log inactivation) / log reduction at 475 µg/mL: Escherichia coli, ATCC25922, 5 min; for log reduction at 1500 µg/mL: dose 1500 mg L-1, read-out: Log (N/N0); for log reduction at 1500 µg/mL / log reduction at 475 µg/mL: 5 min; for log reduction at 475 µg/mL: dose 475 mg L-1
Method: The chemicals and reagents used are detailed in Supplementary Note 1. The bacteria E. coli (ATCC 25922) and S. aureus (ATCC 25923) were cultured aerobically in Luria-Bertani broth (Sigma-Aldrich) and Tryptone Soya broth (Oxoid), respectively, at 37 °C for 16 h. The fungus C. albicans (ATCC 14053) was aerobically cultured in Sabouraud Dextrose broth (Difco) at 37 °C for 24 h. The microorganism cells were harvested by centrifugation at 1200×g (10 min, 4 °C) and resuspended in phosphate-buffered saline (PBS, 10 mM, pH 7.2). The disinfection experiments were performed in PBS solutions (10 mM, pH 7.2) with an initial concentration of E. coli, S. aureus, or C. albicans of 10^6‒10^7 cells per milliliter. A contact time of 5 min was used in accordance with the recommended time range of 0.25–10 min by USEPA for surface disinfection. Preliminary tests were conducted to determine the appropriate range of DBP doses. The appropriate dose range was established when the lowest and highest doses could achieve <1-log and >3-log of microbial inactivation, respectively. Based on the preliminary results, a series of doses of DBPs were added to the cell suspensions at room temperature (22 ± 1 °C). After the contact time of 5 min, the microorganism cells were enumerated following a membrane filter method. Briefly, serial 10-fold dilutions were conducted for the disinfected samples and the control sample without disinfection. Each diluted suspension was subjected to filtration through 0.45-μm membrane, which was then placed on a petri dish. The Petri dishes containing E. coli, S. aureus, and C. albicans were incubated in m-FC medium (Becton Dickinson & Co) at 45 °C for 24 h, in Tryptone Soya broth at 37 °C for 24 h and in Sabouraud Dextrose broth at 37 °C for 24 h, respectively. After incubation, the colony-forming units within a statistically reasonable range (20–80) were counted.
The impact of pH on the disinfection efficiencies of DBPs was examined. E. coli (ATCC 25922) was used as the test strain. The disinfection experiments were performed in 10 mM PBS solutions (pH 6.2, 7.2, and 8.2) with an initial E. coli concentration of 10^6‒10^7 cells per milliliter. To initiate the disinfection, a DBP was dosed with a bacteria suspension at a predetermined concentration. After the given contact time (5 min) at room temperature (22 ± 1 °C), the bacteria were enumerated following the membrane filter method. The bacteria concentrations in the 10 mM PBS solutions (pH 6.2, 7.2, and 8.2) without the addition of DBPs were used as controls.

**Q.** Which results are given for `Oc1cc(Br)c(O)cc1Br` [2,5-DBHQ, 2,5-dibromohydroquinone]?
**A.** Normal development (%) ([1]; dilution factor 366.306): 0%; Normal development (%) ([1]; dilution factor 439.567): 8.76% and 2.206%; Normal development (%) ([1]; dilution factor 549.459): 13.3508% and 11.7022%; Normal development (%) ([1]; dilution factor 732.612): 55.6452% and 53.271%; Normal development (%) ([1]; dilution factor 1098.92): 74.7747% and 73.7705%; Normal development (%) ([1]; dilution factor 2197.84): 91.7072% and 82.9908%; Relative concentration remaining (1 at 0 min) ([2]; pH 6.2, degradation time 0 min): 1; Relative concentration remaining (1 at 0 min) ([2]; pH 6.2, degradation time 15 min): 0.9903 and 1.013; Relative concentration remaining (1 at 0 min) ([2]; pH 6.2, degradation time 30 min): 1.0399 and 0.9876; Relative concentration remaining (1 at 0 min) ([2]; pH 6.2, degradation time 60 min): 1.018 and 0.9782; Relative concentration remaining (1 at 0 min) ([2]; pH 6.2, degradation time 90 min): 1.002 and 0.9911; Relative concentration remaining (1 at 0 min) ([2]; pH 6.2, degradation time 120 min): 0.974 and 0.967; Relative concentration remaining (1 at 0 min) ([2]; pH 6.2, degradation time 180 min): 0.9787 and 0.9462; Relative concentration remaining (1 at 0 min) ([2]; pH 6.2, degradation time 240 min): 0.9527 and 0.9358; Relative concentration remaining (1 at 0 min) ([2]; pH 7.2, degradation time 0 min): 1; Relative concentration remaining (1 at 0 min) ([2]; pH 7.2, degradation time 15 min): 1.006 and 0.9535; Relative concentration remaining (1 at 0 min) ([2]; pH 7.2, degradation time 30 min): 0.9742 and 0.9233; Relative concentration remaining (1 at 0 min) ([2]; pH 7.2, degradation time 45 min): 0.8634 and 0.8365; Relative concentration remaining (1 at 0 min) ([2]; pH 7.2, degradation time 60 min): 0.7743 and 0.7531; Relative concentration remaining (1 at 0 min) ([2]; pH 7.2, degradation time 90 min): 0.6443 and 0.5863; Relative concentration remaining (1 at 0 min) ([2]; pH 7.2, degradation time 120 min): 0.5356 and 0.4974; Relative concentration remaining (1 at 0 min) ([2]; pH 7.2, degradation time 180 min): 0.3959 and 0.345; Relative concentration remaining (1 at 0 min) ([2]; pH 8.2, degradation time 0 min): 1; Relative concentration remaining (1 at 0 min) ([2]; pH 8.2, degradation time 3 min): 0.7301 and 0.7188; Relative concentration remaining (1 at 0 min) ([2]; pH 8.2, degradation time 8 min): 0.5509 and 0.4986; Relative concentration remaining (1 at 0 min) ([2]; pH 8.2, degradation time 12 min): 0.3915 and 0.3688; Relative concentration remaining (1 at 0 min) ([2]; pH 8.2, degradation time 16 min): 0.2832 and 0.2676; Relative concentration remaining (1 at 0 min) ([2]; pH 8.2, degradation time 20 min): 0.2193 and 0.1797; Relative concentration remaining (1 at 0 min) ([2]; pH 8.2, degradation time 25 min): 0.1418 and 0.1248; half-life at 10 mg L−1 ([2]; pretreated seawater in darkness, pH 8.2): 9 min; Ln (C/C0) ([2]; 0 min): 0; half-life at 10 mg L−1 ([3]; pretreated seawater under simulated solar irradiation): 0.16 h; Ln (C/C0) ([3]; 0 min): 0; log reduction at 1500 µg/mL ([4]; pH 6.2, E. coli, pH 6.2): 1.35; log reduction at 1500 µg/mL ([4]; pH 7.2, E. coli, pH 7.2): 3.28; log reduction at 1500 µg/mL ([4]; pH 8.2, E. coli, pH 8.2): 3.84; EC (3-log inactivation) ([4]; pH 7.2, contact time 5 min, read-out: Dose for achieving 3-log inactivation of E. coli): 1450 µg/mL; E. coli inactivation rate constant k ([4]; pH 7.2, contact time 5 min): 0.03 L mg‒1 h‒1

**Q.** Which “Normal development (%)” value ([1]; dilution factor 9.6524) does the source give for `Oc1ccc(Cl)cc1Cl` [2,4-DCPh, 2,4-Dichlorophenol] here?
**A.** 0%

**Q.** And the “Normal development (%)” value ([1]; dilution factor 13.1623)?
**A.** 7.691% and 7.509%

**Q.** And the “Normal development (%)” value ([1]; dilution factor 16.0873)?
**A.** 35.5728% and 39.4272%

**Q.** What about the “Normal development (%)” value ([1]; dilution factor 20.6836) of the same compound?
**A.** 55.5625% and 48.4375%

**Q.** And the “Normal development (%)” value ([1]; dilution factor 28.9571)?
**A.** 80.2893% and 76.7107%

**Q.** And the “Normal development (%)” value ([1]; dilution factor 57.9141)?
**A.** 81.6957% and 84.3043%

**Q.** What about the “Ln (C/C0)” value ([2]; 0 h) of the same compound?
**A.** 0

**Q.** What about the “Ln (C/C0)” value ([2]; 24 h) of the same compound?
**A.** 0.008094 and 0.006005

**Q.** What about the “Ln (C/C0)” value ([2]; 48 h) of the same compound?
**A.** 0.007156 and 0.006397

**Q.** And the half-life at 10 mg L−1 ([3]; buffer)?
**A.** 45 h

**Q.** And the “Ln (C/C0)” value ([3]; 0 h)?
**A.** 0

**Q.** What about the log reduction at 475 µg/mL ([4]; pH 6.2, read-out: Log (N/N0), E. coli, pH 6.2) of the same compound?
**A.** 3.02

**Q.** What about the EC (3-log inactivation) ([4]; pH 7.2, read-out: Dose for achieving 3-log inactivation of E. coli) of the same compound?
**A.** 472 µg/mL

**Q.** What about the log reduction at 475 µg/mL ([4]; pH 7.2, read-out: Log (N/N0), E. coli, pH 7.2) of the same compound?
**A.** 3.32

**Q.** What about the log reduction at 475 µg/mL ([4]; pH 8.2, read-out: Log (N/N0), E. coli, pH 8.2) of the same compound?
**A.** 3.29

**Q.** What about the “E. coli inactivation rate constant k” value ([4]; pH 7.2, contact time 5 min) of the same compound?
**A.** 0.30 L mg‒1 h‒1
